The structures appear in SMILES notation. Activity calls are given as the source filed them. The rule behind the calls is not given here.

Assay [1] addresses T1, Ribonuclease pancreatic (Bos taurus, UniProt P61823).
T1 sequence (P61823 whole entry): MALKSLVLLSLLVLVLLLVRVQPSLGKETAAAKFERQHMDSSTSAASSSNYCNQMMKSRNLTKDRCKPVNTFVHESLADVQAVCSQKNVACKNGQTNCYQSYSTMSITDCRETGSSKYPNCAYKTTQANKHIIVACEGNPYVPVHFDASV
As to the kind of experiment: Inhibition of bovine pancreatic RNase A using 2',3'-cCMP as substrate by Lineweaver-Burk plot analysis.

In assay [2] the target is T2, Ribonuclease pancreatic (Bos taurus) (UniProt P61823).
T2 sequence (whole entry): T1 sequence (P61823 whole entry)
Nature of the assay: Inhibition of bovine pancreatic RNase A assessed as increase in RNA band intensity using RNA as substrate incubated for 3 hrs followed by RNA addition for 30 mins by ethidium bromide staining based agarose gel electrophoresis. As to conditions: time 210.0 min.

Assay [3] concerns the target T1, Ribonuclease pancreatic. Nature of the assay: Competitive inhibition of bovine pancreatic RNase A using 2',3'-cCMP as substrate by Lineweaver-Burk plot analysis.
Assay [4] has as its target T1, Ribonuclease pancreatic. Nature of the assay: Non-competitive inhibition of bovine pancreatic RNase A using 2',3'-cCMP as substrate by Lineweaver-Burk plot analysis.
Assay [5] deals with T1, Ribonuclease pancreatic. Nature of the assay: Inhibition of bovine pancreatic RNase A assessed as reduction in CpG cleavage by spectrophotometric analysis.

The compound `Cc1cn([C@H]2C[C@H](NC(=O)[C@@H](CC(=O)O)NC(=O)[C@H]3O[C@@H](n4cnc5c(N)ncnc54)[C@H](O)[C@@H]3O)[C@@H](CO)O2)c(=O)[nH]c1=O` came in with a Ki at Ribonuclease pancreatic [1] of 32 µM.
For the compound `O=C(O)c1cc(-n2cc(CS(=O)(=O)O)nn2)cc(-n2cc(CS(=O)(=O)O)nn2)c1`, the inhibition entry in assay [2] was “Active”. The affinity at Ribonuclease pancreatic [3] corresponds to a Ki of 12 µM.
As for `O=C(O)C1CCN(C(=O)c2cccc(C(=O)N3CCC(C(=O)O)CC3)c2)CC1`, the affinity on Ribonuclease pancreatic [4] corresponds to a Ki of 617 µM. For the same compound, in assay [2], the inhibition entry was “Active”.
In the case of `O=S(=O)(O)CCn1cc(COC[C@@H]2O[C@H](Cn3cc(CS(=O)(=O)O)nn3)[C@@H](O)[C@H]2O)nn1`, the Ki on Ribonuclease pancreatic [1] came to 29 µM.
`O=S(=O)(O)Cc1cn(-c2cccc(-n3cc(CS(=O)(=O)O)nn3)c2)nn1`: in assay [2], the inhibition result is “Active”. The compound further showed an inhibition constant (Ki) on Ribonuclease pancreatic [3] of 32 µM.
In the same order, the values of `O=C(O)c1cc(-n2cc(CO)nn2)cc(-n2cc(CO)nn2)c1` are “Active” and 44 µM.
Consider `O=C(O)c1cc(C(=O)N2CCC(C(=O)O)CC2)cc(C(=O)N2CCC(C(=O)O)CC2)c1`, for which the inhibition result in assay [2] was “Active”. At Ribonuclease pancreatic [3], this compound yielded an inhibition constant Ki of 272 µM.
Take `O=C(O)c1cc(-n2cc(C(=O)O)nn2)cc(-n2cc(C(=O)O)nn2)c1`: in assay [2], the inhibition entry is “Active”. The Ki on Ribonuclease pancreatic [3] was found to be 28 µM.
Consider `O=C(O)c1cn(-c2cccc(-n3cc(C(=O)O)nn3)c2)nn1`, for which, in assay [2], the inhibition entry is “Active”. Besides, on Ribonuclease pancreatic [3], the affinity, expressed as Ki, was 60 µM.
Regarding `O=C(Nc1ccc(Cc2ccc(NC(=O)c3cccc([N+](=O)[O-])c3)c(C(=O)O)c2)cc1C(=O)O)c1cccc([N+](=O)[O-])c1`, the inhibition constant Ki on Ribonuclease pancreatic [5] was found to be 21 µM.
Regarding `Cc1cn([C@H]2C[C@H](NC(=O)[C@@H](CC(=O)O)NC(=O)[C@H]3O[C@@H](n4ccc(=O)[nH]c4=O)[C@H](O)[C@@H]3O)[C@@H](CO)O2)c(=O)[nH]c1=O`, the Ki at Ribonuclease pancreatic [1] stood at 66.7 µM.
For the compound `OCc1cn(-c2cccc(-n3cc(CO)nn3)c2)nn1`, the inhibition result in assay [2] was “Active”. Moreover, at Ribonuclease pancreatic [3], the inhibition constant Ki was 79 µM.

These data come from ChEMBL document CHEMBL5108013, “Crescent-shaped meta-substituted benzene derivatives as a new class of non-nucleoside ribonuclease A inhibitors” (Bioorg Med Chem, 2022).
